What was measured:
[1] = test system: noradrenergic tone; assay: Urinary MHPG-S excretion (surrogate for noradrenergic tone, MAO-A metabolite); format: in vivo, human
Description: (§1) The interactions between MAO-A inhibitors and cocaine administered are largely unexplored. […] Therefore, measurement of dopaminergic and noradrenergic tone may be important in predicting toxic events. We measured dopaminergic tone with the surrogate marker of plasma HVA, the major brain metabolite of dopamine, and serum levels of prolactin, a hormone whose secretion is inhibited by dopamine. The surrogate for noradrenergic tone was urine concentrations of MHPG-S. In order to assess the degree of MAO-A and MAO-B inhibition, we assayed concentrations of a substrate of MAO-B, phenylethylamine (PEA). PEA would be expected to increase with MAO-B inhibition, and concentrations of MHPG-S, which is a metabolite of norepinephrine produced by MAO-A primarily in the brain [20], would be expected to decrease.
(§2) When subjects were in the GCRC, all urine was collected and volumes recorded. Following each cocaine infusion, urine was collected in fractions from 0 to 24, 24 to 48, and 48 to 72 hours (timed from the start of the infusion). Samples were then frozen at -70°C until analyzed. […] A qualitative screen for drugs of abuse was obtained every other day for the entire study period.
Concentrations of MHPG-S in urine were determined using LC-MS/MS [29]. […] As urinary creatinine excretion is directly related to glomerular filtration and renal blood flow, and urinary creatinine excretion is relatively constant (~1 gm/day), it can be used to estimate concentrations of a substance during a 24 hour urine collection period. Using ratios of the concentrations of MHPG-S to creatinine obtained from assays of these spot urine samples, MGPG-S concentrations during the outpatient period (when subjects would be unlikely to provide accurate 24 hour urine collections) were compared to those from urine samples on inpatient days.

[2] = test system: dopaminergic tone; assay: Serum prolactin and plasma HVA (surrogate markers of dopaminergic tone); format: in vivo, human; conditions: both challenge sessions; change within each session not significant
Description: as §1

[3] = humans; cited from earlier work
[4] = target: T1, MAO-B (Homo sapiens, UniProt P27338); format: in vivo; conditions: Day 3–4 After Cocaine Preselegiline
T1 construct: Twelve nondependent cocaine-experienced subjects received deuterium-labeled cocaine-d5 intravenously; from tissue; host or cells: whole body of living human subjects (in vivo); 24-hour urine analysed for PEA
T1 sequence (P27338 1-520): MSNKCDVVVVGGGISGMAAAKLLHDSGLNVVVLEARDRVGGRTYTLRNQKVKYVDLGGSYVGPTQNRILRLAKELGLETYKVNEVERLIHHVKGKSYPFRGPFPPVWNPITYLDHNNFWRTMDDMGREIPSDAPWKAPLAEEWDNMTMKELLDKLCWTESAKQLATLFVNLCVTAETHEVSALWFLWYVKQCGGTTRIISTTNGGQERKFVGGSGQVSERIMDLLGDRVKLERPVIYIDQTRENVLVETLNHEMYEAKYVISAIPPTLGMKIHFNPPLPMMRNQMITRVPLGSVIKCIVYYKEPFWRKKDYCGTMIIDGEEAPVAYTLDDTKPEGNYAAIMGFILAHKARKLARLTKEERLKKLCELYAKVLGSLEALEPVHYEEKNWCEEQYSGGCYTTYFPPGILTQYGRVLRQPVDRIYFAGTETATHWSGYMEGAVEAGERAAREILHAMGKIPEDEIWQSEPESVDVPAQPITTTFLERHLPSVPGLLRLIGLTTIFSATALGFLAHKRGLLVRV
Description: as §1, §2

[5] = test system: nondependent cocaine-experienced subjects; assay: Physiologic measures during cocaine challenge sessions; format: in vivo, human; conditions: for Systolic Blood Pressure, Peak change: Mean ± SD, 12 subjects
Method: Heart rate, systolic and diastolic blood pressure were measured using a cardiovascular monitor (Dinamap by Critikon, Vital Signs Monitor 1846 SX). Rate pressure product was calculated as the product of systolic blood pressure and heart rate. Respiration rate was measured by counting the number of inhalations per minute. These vital signs were determined with the patient in a supine position for at least 10 minutes.
Heart rate, blood pressure, respiration rate, skin and core temperature were recorded at specific times during the study. During infusions, measures were obtained pre-dose and at 0.17, 0.5, 0.75, 1, 1.5, 2, 2.5, 3, 3.5, 4, 4.25, 4.5, 5, 6, 8, 12, 18, 24, 36, 48, and 72 hours after dosing. The electrocardiogram was monitored continuously during the infusion and for 4 hours after the termination of the intravenous cocaine infusion. EKG tracings were recorded at each data collection point.
The time courses of physiologic and subjective data were analyzed by repeated measures analysis of variance (ANOVA). Treatment conditions (Sessions 1 and 2) and observation times (hours post-dose) were considered within-subject factors. Change scores (post-dose minus pre-dose values) were used in most analyses. Raw score were used where indicated. After a significant F test, pairwise comparisons of treatment conditions were performed using the least squares means analysis. Peak effects within a session were determined for each subject and each variable and analyzed using a one-factor repeated measures ANOVA. Effects were considered statistically significant at p = 0.05. Data were adjusted for sphericity using the Huynh-Feldt adjustment factor. Huynh-Feldt-corrected significance values are reported.

[6] = Session 1: first cocaine infusion, before selegiline
[7] = Session 2: second cocaine infusion, after one week of selegiline STS
[8] = both cocaine challenge sessions, p < 0.01

For `COC(=O)[C@H]1[C@@H](OC(=O)c2ccccc2)C[C@@H]2CC[C@H]1N2C` [Cocaine, cocaine], the “Total Amount of MHPG-S Excreted in the 24 Hour Urine Collection” value ([1]; Day 3–4 After Cocaine Preselegiline) was 1.44 ± 0.43 mg, the “Urine MHPG-S/creatinine concentration ratios vs the day before cocaine challenge” value ([1]; second day after the first cocaine challenge, p < 0.05) was “increased significantly” and the “Serum prolactin levels after cocaine, change within session” value [2] was “numerically decreased”. The “half life of acute pharmacokinetic and dynamic effects” value [3] was “about 1 hour”, the “Total Amount of PEA Excreted in the 24 Hour Urine Collection” value [4] was 0.003 ± 0.004 mg and the “Core Temperature, Peak Time” value [5, 6] was 4.5 ± 1.6 Hr Postdose. For the same compound, the “Core Temperature, Peak change” value [5, 6] was 0.7 ± 0.2 °C, the “Diastolic Blood Pressure, Peak Time” value [5, 6] was 2.8 ± 2.4 Hr Postdose and the “Diastolic Blood Pressure, Peak change” value [5, 6] was 10 ± 5 mmHg. The “Heart Rate, Peak Time” value [5, 6] was 0.8 ± 0.9 Hr Postdose, the “Heart Rate, Peak change” value [5, 6] was 26 ± 10 beats/min and the “Rate Pressure Product, Peak Time” value [5, 6] was 1.4 ± 1.5 Hr Postdose. The “Rate Pressure Product, Peak change” value [5, 6] was 4224 ± 1638 SBP*HR, the “Respiration Rate, Peak Time” value [5, 6] was 0.9 ± 1.3 Hr Postdose and the “Respiration Rate, Peak change” value [5, 6] was 3.8 ± 4.0 inhal/min. For the same compound, the “Skin Temperature, Peak Time” value [5, 6] was 0.8 ± 0.4 Hr Postdose, the “Skin Temperature, Peak change” value [5, 6] was -5.4 ± 2.7 °C and the “Systolic Blood Pressure, Peak Time” value [5, 6] was 2.2 ± 1.9 Hr Postdose. The “Systolic Blood Pressure, Peak change” value ([5]; Session 1: first cocaine infusion, day 1, before selegiline) was 17 ± 8 mmHg, the “Core Temperature, Peak Time” value [5, 7] was 4.2 ± 1.9 Hr Postdose and the “Core Temperature, Peak change” value [5, 7] was 0.7 ± 0.5 °C. The “Diastolic Blood Pressure, Peak Time” value [5, 7] was 2 ± 2 Hr Postdose, the “Diastolic Blood Pressure, Peak change” value [5, 7] was 12 ± 6 mmHg and the “Heart Rate, Peak Time” value [5, 7] was 0.9 ± 1.7 Hr Postdose. The “Heart Rate, Peak change” value [5, 7] was 27 ± 12 beats/min, the “Rate Pressure Product, Peak Time” value [5, 7] was 0.9 ± 1.6 Hr Postdose and the “Rate Pressure Product, Peak change” value [5, 7] was 4437 ± 2333 SBP*HR. The “Respiration Rate, Peak Time” value [5, 7] was 0.4 ± 0.3 Hr Postdose, the “Respiration Rate, Peak change” value [5, 7] was 3.8 ± 3.6 inhal/min and the “Skin Temperature, Peak Time” value [5, 7] was 1.0 ± 1.2 Hr Postdose. For the same compound, the “Skin Temperature, Peak change” value [5, 7] was -5 ± 3.2 °C, the “Systolic Blood Pressure, Peak Time” value [5, 7] was 1.9 ± 1.7 Hr Postdose and the “Systolic Blood Pressure, Peak change” value ([5]; Session 2: second cocaine infusion, day 11, after one week of selegiline STS patch 6 mg/24 hours) was 17 ± 9 mmHg. The “Skin temperature compared to baseline” value [5, 8] was “decreased significantly”, the “Systolic blood pressure, heart rate, and rate pressure product compared to baseline” value [5, 8] was “increased significantly” and the “Diastolic blood pressure, respiration rate, and core temperature” value ([5]; cocaine either alone or with selegiline) was “did not alter”.
